# Test system: 883617-216-R-J1-PDC complex spheroid viability
# Assay: Anticancer human tumor 883617-216-R-J1-PDC patient-derived bladder carcinoma cell line growth inhibition [POLQ]
# Details: for IC50: curve of first compound; for viability, T/C: stronger effect = lower value
# Procedure, shortened: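 PDC + HUVEC + MSC complex spheroids; POLQ inhibitors ± partner drugs; top conc. at/near clinical Cmax, else 10 microM (SN-38 1 microM), half-log dilutions; 37 degrees C, 5% CO2.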
# [1] = second compound 0.0316 µM, first compound 0.0316 µM
# [2] = second compound 0.0316 µM, first compound 0.1 µM
# [3] = second compound 0.0316 µM, first compound 0.316 µM
# [4] = second compound 0.0316 µM, first compound 1 µM
# [5] = second compound 0.0316 µM, first compound 3.16 µM
# [6] = second compound 0.0316 µM, first compound 10 µM
# [7] = second compound 0.1 µM, first compound 0.0316 µM
# [8] = second compound 0.1 µM, first compound 0.1 µM
# [9] = second compound 0.1 µM, first compound 0.316 µM
# [10] = second compound 0.1 µM, first compound 1 µM
# [11] = second compound 0.1 µM, first compound 3.16 µM
# [12] = second compound 0.1 µM, first compound 10 µM
# [13] = second compound 0.316 µM, first compound 0.0316 µM
# [14] = second compound 0.316 µM, first compound 0.1 µM
# [15] = second compound 0.316 µM, first compound 0.316 µM
# [16] = second compound 0.316 µM, first compound 1 µM
# [17] = second compound 0.316 µM, first compound 3.16 µM
# [18] = second compound 0.316 µM, first compound 10 µM
# [19] = second compound 1 µM, first compound 0.0316 µM
# [20] = second compound 1 µM, first compound 0.1 µM
# [21] = second compound 1 µM, first compound 0.316 µM
# [22] = second compound 1 µM, first compound 1 µM
# [23] = second compound 1 µM, first compound 3.16 µM
# [24] = second compound 1 µM, first compound 10 µM
# [25] = second compound 3.16 µM, first compound 0.0316 µM
# [26] = second compound 3.16 µM, first compound 0.1 µM
# [27] = second compound 3.16 µM, first compound 0.316 µM
# [28] = second compound 3.16 µM, first compound 1 µM
# [29] = second compound 3.16 µM, first compound 3.16 µM
# [30] = second compound 3.16 µM, first compound 10 µM
# [31] = second compound 10 µM, first compound 0.0316 µM
# [32] = second compound 10 µM, first compound 0.1 µM
# [33] = second compound 10 µM, first compound 0.316 µM
# [34] = second compound 10 µM, first compound 1 µM
# [35] = second compound 10 µM, first compound 3.16 µM
# [36] = second compound 10 µM, first compound 10 µM
# 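Further: spheroids exposed to compounds for seven days before readout.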
# 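Wherever viability, T/C is given: 100% = DMSO vehicle control viability.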
smiles,measurement,setting,value
CCc1cc2c(N3CCc4c(cc(Cn5ccnc5)cc4-c4cn(C)nc4C(F)(F)F)C3=O)ccnc2c(OC)n1 + COC1C(OC(N)=O)C(O)C(Oc2ccc3c(O)c(NC(=O)c4ccc(O)c(CC=C(C)C)c4)c(=O)oc3c2C)OC1(C)C,IC50,second compound 0.0316 µM,> 10 µM
same,IC50,second compound 0.1 µM,> 10 µM
same,IC50,second compound 0.316 µM,> 10 µM
same,IC50,second compound 1 µM,> 10 µM
same,IC50,second compound 3.16 µM,> 10 µM
same,IC50,second compound 10 µM,> 10 µM
same,"viability, T/C",[1],103%
same,"viability, T/C",[2],103%
same,"viability, T/C",[3],97.7%
same,"viability, T/C",[4],104%
same,"viability, T/C",[5],78.8%
same,"viability, T/C",[6],57.6%
same,"viability, T/C",[7],97.8%
same,"viability, T/C",[8],93.9%
same,"viability, T/C",[9],101%
same,"viability, T/C",[10],92.5%
same,"viability, T/C",[11],72.7%
same,"viability, T/C",[12],58.6%
same,"viability, T/C",[13],106%
same,"viability, T/C",[14],93.4%
same,"viability, T/C",[15],115%
same,"viability, T/C",[16],99.9%
same,"viability, T/C",[17],78.2%
same,"viability, T/C",[18],53.5%
same,"viability, T/C",[19],102%
same,"viability, T/C",[20],93.1%
same,"viability, T/C",[21],115%
same,"viability, T/C",[22],100%
same,"viability, T/C",[23],82.4%
same,"viability, T/C",[24],57.1%
same,"viability, T/C",[25],94.6%
same,"viability, T/C",[26],95.3%
same,"viability, T/C",[27],106%
same,"viability, T/C",[28],104%
same,"viability, T/C",[29],79.2%
same,"viability, T/C",[30],62.6%
same,"viability, T/C",[31],103%
same,"viability, T/C",[32],93.4%
same,"viability, T/C",[33],110%
same,"viability, T/C",[34],106%
same,"viability, T/C",[35],75.3%
same,"viability, T/C",[36],57.8%
COc1cc2cc(C(=O)CCC(=O)O)sc2cc1OC + COC1C(OC(N)=O)C(O)C(Oc2ccc3c(O)c(NC(=O)c4ccc(O)c(CC=C(C)C)c4)c(=O)oc3c2C)OC1(C)C,IC50,second compound 0.0316 µM,> 10 µM
same,IC50,second compound 0.1 µM,> 10 µM
same,IC50,second compound 0.316 µM,> 10 µM
same,IC50,second compound 1 µM,> 10 µM
same,IC50,second compound 3.16 µM,> 10 µM
same,IC50,second compound 10 µM,> 10 µM
same,"viability, T/C",[1],91.3%
same,"viability, T/C",[2],89.1%
same,"viability, T/C",[3],105%
same,"viability, T/C",[4],83.3%
same,"viability, T/C",[5],101%
same,"viability, T/C",[6],90.9%
same,"viability, T/C",[7],113%
same,"viability, T/C",[8],102%
same,"viability, T/C",[9],88.7%
same,"viability, T/C",[10],93.8%
same,"viability, T/C",[11],99.6%
same,"viability, T/C",[12],102%
same,"viability, T/C",[13],89.4%
same,"viability, T/C",[14],83.6%
same,"viability, T/C",[15],92.5%
same,"viability, T/C",[16],93%
same,"viability, T/C",[17],101%
same,"viability, T/C",[18],89.2%
same,"viability, T/C",[19],98.9%
same,"viability, T/C",[20],96.6%
same,"viability, T/C",[21],86.4%
same,"viability, T/C",[22],100%
same,"viability, T/C",[23],90.4%
same,"viability, T/C",[24],98.2%
same,"viability, T/C",[25],94%
same,"viability, T/C",[26],94.1%
same,"viability, T/C",[27],90.7%
same,"viability, T/C",[28],101%
same,"viability, T/C",[29],98.6%
same,"viability, T/C",[30],92.4%
same,"viability, T/C",[31],101%
same,"viability, T/C",[32],98.5%
same,"viability, T/C",[33],88.5%
same,"viability, T/C",[34],93.9%
same,"viability, T/C",[35],84.6%
same,"viability, T/C",[36],101%
O=C(Nc1ccc(O)c(NS(=O)(=O)c2ccc(F)cc2)c1)c1ccc(-c2ccccc2)cc1 + COC1C(OC(N)=O)C(O)C(Oc2ccc3c(O)c(NC(=O)c4ccc(O)c(CC=C(C)C)c4)c(=O)oc3c2C)OC1(C)C,IC50,second compound 0.0316 µM,> 10 µM
same,IC50,second compound 0.1 µM,> 10 µM
same,IC50,second compound 0.316 µM,> 10 µM
same,IC50,second compound 1 µM,> 10 µM
same,IC50,second compound 3.16 µM,> 10 µM
same,IC50,second compound 10 µM,> 10 µM
same,"viability, T/C",[1],95.1%
same,"viability, T/C",[2],90.8%
same,"viability, T/C",[3],83.6%
same,"viability, T/C",[4],84.6%
same,"viability, T/C",[5],95.9%
same,"viability, T/C",[6],64.9%
same,"viability, T/C",[7],81.6%
same,"viability, T/C",[8],100%
same,"viability, T/C",[9],81%
same,"viability, T/C",[10],89.6%
same,"viability, T/C",[11],81.3%
same,"viability, T/C",[12],62.4%
same,"viability, T/C",[13],88.1%
same,"viability, T/C",[14],104%
same,"viability, T/C",[15],83.8%
same,"viability, T/C",[16],90.1%
same,"viability, T/C",[17],89.5%
same,"viability, T/C",[18],53.2%
same,"viability, T/C",[19],86.4%
same,"viability, T/C",[20],86.5%
same,"viability, T/C",[21],93.3%
same,"viability, T/C",[22],90.4%
same,"viability, T/C",[23],81.7%
same,"viability, T/C",[24],62.9%
same,"viability, T/C",[25],88.9%
same,"viability, T/C",[26],96.4%
same,"viability, T/C",[27],97.3%
same,"viability, T/C",[28],73.5%
same,"viability, T/C",[29],77%
same,"viability, T/C",[30],65.7%
same,"viability, T/C",[31],103%
same,"viability, T/C",[32],87.5%
same,"viability, T/C",[33],98.3%
same,"viability, T/C",[34],83.2%
same,"viability, T/C",[35],89.7%
same,"viability, T/C",[36],70.4%
COc1cccc2c1C(=O)c1c(O)c3c(c(O)c1C2=O)CC(O)(C(=O)CO)CC3OC1CC(N)C(O)C(C)O1 (stereo not drawn) + Cc1cccc(N(C)C(=O)C2C(O)CCN2c2nc(C)cc(C(F)(F)F)c2C#N)c1,IC50,second compound 0.0316 µM,0.311 µM
same,IC50,second compound 0.1 µM,0.228 µM
same,IC50,second compound 0.316 µM,0.222 µM
same,IC50,second compound 1 µM,0.359 µM
same,IC50,second compound 3.16 µM,0.206 µM
same,IC50,second compound 10 µM,0.33 µM
same,"viability, T/C",[1],78%
same,"viability, T/C",[2],60.8%
same,"viability, T/C",[3],52.2%
same,"viability, T/C",[4],9.43%
same,"viability, T/C",[5],0.22%
same,"viability, T/C",[6],0.21%
same,"viability, T/C",[7],66.1%
same,"viability, T/C",[8],67.9%
same,"viability, T/C",[9],43.2%
same,"viability, T/C",[10],8.29%
same,"viability, T/C",[11],0.32%
same,"viability, T/C",[12],0.2%
same,"viability, T/C",[13],74.3%
same,"viability, T/C",[14],59.8%
same,"viability, T/C",[15],45.4%
same,"viability, T/C",[16],6.2%
same,"viability, T/C",[17],0.22%
same,"viability, T/C",[18],0.2%
same,"viability, T/C",[19],65.1%
same,"viability, T/C",[20],57.5%
same,"viability, T/C",[21],55.6%
same,"viability, T/C",[22],5.25%
same,"viability, T/C",[23],0.22%
same,"viability, T/C",[24],0.2%
same,"viability, T/C",[25],66.8%
same,"viability, T/C",[26],57.3%
same,"viability, T/C",[27],43.7%
same,"viability, T/C",[28],3.99%
same,"viability, T/C",[29],0.31%
same,"viability, T/C",[30],0.29%
same,"viability, T/C",[31],66%
same,"viability, T/C",[32],58.1%
same,"viability, T/C",[33],51.9%
same,"viability, T/C",[34],1.41%
same,"viability, T/C",[35],0.35%
same,"viability, T/C",[36],0.34%
